The source of these data is US20210221812A1, “MATRINE a-KETOAMINE COMPOUNDS, PREPARATION METHOD THEREFOR AND USE THEREOF” (SHANGHAI XINGYE PHARMACEUTICAL TECHNOLOGY CO., LTD, priority 2018, published 2021).

Experiment [1] deals with HpeG-2 cells. Kind of experiment: Anti-tumor activity of NK cells activated by compounds, HpeG-2 (CFSE/PI flow cytometry). It counts as cell-based. As to conditions: tumor cells treated with 20 μM compound 48 h, then mixed with NK cells 5:1 for 4 hours; CFSE+PI+ tumor cells; read-out: HpeG-2 inhibition rate (%). The method, then:
(§1) Logarithmic growth phase of Lovo, HpeG-2, A549, k562, Panc-1 cells were collected and seeded in a 6-well plate at a density of 5×10^5/mL and 2 mL/well separately. The experimental group was treated with 20 μM final drug concentration of GJDx compounds, and the control group was treated with an equal volume of RPMI1640 medium. The groups were cultured at 37° C., saturated humidity, 5% CO2 for 48 h. After that, the cells of each group were collected, centrifuged and the supernatant was removed and resuspended in PBS at a density of 1×10^6/mL. Then 2 μL of CFSE stock solution (final concentration was 10 μM) was added into the cell suspension per 1 mL and cultured at 37° C. with 5% CO2 for 30 min, and then added 5-10 times of the volume of 4° C. pre-chilled RPM 1640 complete medium, and incubated on ice for 5 minutes, discarded the supernatant by centrifugation at 4° C., and wash the cells with fresh medium for 3 times. After that, mixing the labeled tumor cells and NK cells (the NK cell culture medium was α-MEM contained 1.5 g/L sodium bicarbonate, 12.5% fetal bovine serum, and 12.5% horse serum) according to the ratio of 5:1, the mixture cells was collected and washed with flow buffer twice after incubated for 4 hours, then 50 μg/mL PI was added, and incubated at room temperature for 15 minutes in the dark, and finally testing the percentage of CFSE^+PI^+ tumor cells on the flow cytometer.
On the technique in general: Flow cytometry measures light scatter and fluorescence of single cells or particles in a stream.

The next experiment has as its system MGC-803 cells. Kind of experiment: MTT tumor cell growth inhibition, MGC-803. It counts as cell-based. As to conditions: Homo sapiens, 48 h, read-out: Tumors growth-inhibitory activity (IC50) MGC-803. The procedure:
(§2) Using MTT method to determine the growth inhibition activity of the matrine compounds on Lovo, MGC-803, Mia-paca2, HpeG-2, A549, k562, and Panc-1 cells in vitro. Logarithmic growth phase of Lovo, MGC-803, Mia-paca2, HpeG-2, A549, k562, Panc-1 cells were inoculated into 96-well plates (purchased from Institute of Biochemical Cells, Chinese Academy of Sciences, and cultured according to conventional tumor cell culture methods) at a density of 4×10^4/mL and 180 μL/well; after the cells adhered to the wall, 20 μL of drug solution was added to each well and matined the final drug concentrations were 0.1 μM, 1 μM, 10 μM, 50 μM, 100 μM respectively. After 48 h, 5 mg/mL MTT solution was added (20 μL/well) and maintained in a CO2 incubator for 3-4 h. After that, discarding the supernatant carefully, and DMSO was added (200 μL/well) when the residual liquid was air-dried, and shook for 0.5-1 h until the residual crystals was dissolved. The absorbance OD was measured at 492 nm by a microplate reader. GraphPad Prism 5 software was used to calculate the IC50 value.

Experiment [2] deals with Panc-1 cells. The experiment can be described thus: Anti-tumor activity of NK cells activated by compounds, Panc-1 (CFSE/PI flow cytometry). It counts as cell-based. As to conditions: Homo sapiens, tumor cells treated with 20 μM compound 48 h, then mixed with NK cells 5:1 for 4 hours, CFSE+PI+ tumor cells, read-out: Panc-1 inhibition rate (%). The procedure:
as §1

Experiment [3] deals with Lovo cells. The experiment can be described thus: MTT tumor cell growth inhibition, Lovo. As to conditions: Homo sapiens, 48 h, read-out: Tumors growth-inhibitory activity (IC50) Lovo. It counts as cell-based. The method, then:
as §2

Experiment [4] has as its system Panc-1 cells. Kind of experiment: MTT tumor cell growth inhibition, Panc-1. As to conditions: Homo sapiens, 48 h, read-out: Tumors growth-inhibitory activity (IC50) Panc-1. It counts as cell-based. The procedure: as §2
In the next experiment the test system is TNF-α. The experiment can be described thus: TNF-α activity inhibiting assay (LPS-stimulated peripheral blood, ELISA). It counts as cell-based, human. As to conditions: Homo sapiens, compound 20 μM, LPS 10 ng/mL, 6 hours, diluted peripheral blood of healthy volunteers, read-out: TNF-α inhibition rate (%). The procedure:
Methods: Peripheral blood from healthy volunteers was collected with EDTA anticoagulant tubes. After being diluted 5-fold with 1640 medium (Gibco, USA), the blood was added to 96-well cell culture plates (Costar, USA) and then treated with 10 μL solution of the compound of general formula (I) of the present invention in DMSO (Sigma, USA), the final concentration of the compound was 20 μM with the final concentration of DMSO was 0.2%. After incubation for 60 minutes in an incubator at 37° C. under 5% CO2, 10 μL LPS (Sigma, USA) was added to the reaction system, and the final concentration was 10 ng/mL. After further culturing for 6 hours in the incubator at 37° C. under 5% CO2, the supernatant was collected. The content of TNF-α was determined by ELISA (BD Biosciences, USA). Absorbance was detected at OD450 nm with a microplate reader, with OD 650 nm as reference. The control, a solution containing 0.2% DMSO medium, was as 0% inhibition. Raw data and standard curves were recorded. The four-parameter drug inhibition curve was plotted by XL-fit software and the inhibition rate of each compound was calculated.
For orientation: An ELISA detects its analyte on a solid surface through an enzyme-linked reagent.

The test system of experiment [5] is k562 cells. The experiment can be described thus: MTT tumor cell growth inhibition, k562. It counts as cell-based. Particulars: Homo sapiens, 48 h, read-out: Tumors growth-inhibitory activity (IC50) k562. The method, then: as §2
The subject of the next experiment is Mia-paca2 cells. Kind of experiment: MTT tumor cell growth inhibition, Mia-paca2. As to conditions: Homo sapiens, MIA PaCa-2, 48 h, read-out: Tumors growth-inhibitory activity (IC50) Mia-paca2. It counts as cell-based. The procedure: as §2
Experiment [6] relates to HpeG-2 cells. Kind of experiment: MTT tumor cell growth inhibition, HpeG-2. It counts as cell-based. Particulars: 48 h, read-out: Tumors growth-inhibitory activity (IC50) HpeG-2. The method, then:
as §2

The test system of experiment [7] is Lovo cells. Kind of experiment: Anti-tumor activity of NK cells activated by compounds, Lovo (CFSE/PI flow cytometry). It counts as cell-based. Particulars: Homo sapiens, tumor cells treated with 20 μM compound 48 h, then mixed with NK cells 5:1 for 4 hours, CFSE+PI+ tumor cells, read-out: Lovo inhibition rate (%). The method, then: as §1
For experiment [8], the system named is k562 cells. The experiment can be described thus: Anti-tumor activity of NK cells activated by compounds, k562 (CFSE/PI flow cytometry). As to conditions: Homo sapiens, tumor cells treated with 20 μM compound 48 h, then mixed with NK cells 5:1 for 4 hours, CFSE+PI+ tumor cells, read-out: k562 inhibition rate (%). It counts as cell-based. The method, then:
as §1

The test system of experiment [9] is A549 cells. Kind of experiment: MTT tumor cell growth inhibition, A549. It counts as cell-based. As to conditions: Homo sapiens, 48 h, read-out: Tumors growth-inhibitory activity (IC50) A549. The method, then: as §2
In experiment [10] the test system is A549 cells. Kind of experiment: Anti-tumor activity of NK cells activated by compounds, A549 (CFSE/PI flow cytometry). Particulars: Homo sapiens, tumor cells treated with 20 μM compound 48 h, then mixed with NK cells 5:1 for 4 hours, CFSE+PI+ tumor cells, read-out: A549 inhibition rate (%). It counts as cell-based. The method, then:
as §1

Molecules are shown by their SMILES. Some results are limits rather than exact numbers.

As for `O=C1c2cccc(C(F)(F)F)c2C(=O)N1C1CC[C@@H]2[C@H]3CCCN4CCC[C@@H](CN2C1=O)[C@@H]34` (stereo partly shown) [GJD 07], the inhibition at 20 µM in the experiment on HpeG-2 cells [1] was over 50%; in the experiment with Panc-1 cells [2], over 50%; in the experiment on TNF-α, over 50%; with Lovo cells [7] it was over 50%; with k562 cells [8] it was over 50%; in the experiment on A549 cells [10] it was under 50%. Moreover, the IC50 in the experiment with MGC-803 cells was 50 to 100 µM; in the experiment on Lovo cells [3] it was under 50 µM; with Panc-1 cells [4], 50 to 100 µM; in the experiment with k562 cells [5], 50 to 100 µM; with Mia-paca2 cells, 50 to 100 µM; in the experiment on HpeG-2 cells [6], 50 to 100 µM. Also, the IC50 with A549 cells [9] is over 100 µM.

By inhibition is commonly meant the relative decrease from the control value, in per cent. In general, IC50 refers to the concentration at which inhibition is half-maximal.
